Legend:
ovarian cancer cells = experiment: Microarray analysis of gene expression in SHetA2-treated ovarian cancer cells; format: cell-based, Homo sapiens
Description: Microarray analysis was conducted to determine specific disease causing genes which were expressed at higher (>1 fold) or lower (<1 fold) levels than normal in ovarian cancer cells treated with SHetA2 (see Table 6).

C6 glioma = experiment: Rat glioma (brain cancer) model, MRI; format: in vivo; details: oral 60 mg/kg/day; vs untreated control
Description: FIG. 9. SHetA2 inhibition of Angiogenesis. C6 glioma cells were injected into the brains of 2 rats. One week later, one rat was gavaged with 60 mg/kg/day SHetA2 on each Monday, Wednesday and Friday. Blood vessels were imaged by MRI.
FIG. 10. […] C6 glioma cells were injected into the brains of 2 rats. One week later, one rat was gavaged with 60 mg/kg/day SHetA2 on each Monday, Wednesday and Friday. The blood flow was measured by MRI imaging.
FIG. 11. SHetA2 inhibition of glioma tumor growth. C6 glioma cells were injected into the brains of 2 rats. One week later, one rat was gavaged with 60 mg/kg/day SHetA2 on each Monday, Wednesday and Friday. The tumor size was measured by MRI imaging.
In this in vivo model, glioma cells are injected into the brains of rats and the growth of the tumor and development of blood vessels in the tumor is measured by magnetic resonance imaging (MRI).

[1] = system: organotypic cultures of human ovarian cancer cell lines and primary cultures; experiment: Ovarian carcinoma organotypic cultures (TUNEL, histology); format: cell-based
Description: FIG. 17. Retinoid effects on ovarian carcinoma organotypic cultures. Organotypic cultures of OVCAR-3 (A, B, E, F, I and J), Caov-3 (C and G), SK-OV-3 (D and H), and O2 (K and L) were grown in the absence (−, top row and K) or presence (+, middle row and I, J and L) of retinoid HetA4 at a concentration of 1 μM in the media. All sections were stained with H&E except for […], which was stained with PAS to detect glycoproteins and glandular differentiation, and J, which was stained with the TUNEL assay to detect apoptosis. All magnifications are 40×.
To test our hypotheses, we evaluated the effects of clinically achievable concentrations of 4-HPR and Flex-Hets on growth, differentiation and apoptosis in ovarian tissue. A series of compounds with a variety of receptor activation profiles were evaluated. In order to evaluate therapeutic effects, we developed an organotypic culture model of ovarian tumors by growing established cell lines and primary cultures inside collagen gels. Monolayer cultures of cells are not accurate representations of in vivo tissue because they lack the types of interactions that cells have with other cells and with the extracellular matrix in vivo. These interactions are known to influence gene expression and thus the constitution and behavior of cells. In our organotypic model, the growth of tumor cells inside the collagen allows a representation of tumors that have invaded stromal tissue. In the presence of fibroblasts, established cell lines and primary cultures of ovarian cancer formed colonies inside the collagen, while normal or benign ovarian epithelial cells remained as single cells inside the collagen. Human ovarian cancer cell lines (OVCAR-3, Caov-3, SK-OV-3, A2780, UCI 101) and primary human cultures (borderline ovarian tumor (O1), serous papillary tumor (O2), benign ovarian cyst (O3)) were cultured inside and on top of a collagen gel seeded with 3T3 fibroblasts for one week. After further incubation in the presence or absence of 1 μM retinoid (media concentration) for 3, 7 or 14 days, cultures were fixed and sectioned for immunohistochemical analysis.
(§1) The TUNEL assay was used to evaluate apoptosis in fixed, paraffin embedded, cut sections of the treated and control cultures (FIG. 17). […] These two cellular outcomes appeared to be mutually exclusive.

[2] = system: SW962 vulvar carcinoma cultures; experiment: Annexin-V-Fluos apoptosis assay; format: cell-based; details: cancer cell lines
Description: SW962 vulvar carcinoma cultures were treated with 10 μM of the indicated retinoid or the same volume of solvent. At the specified times, the cultures were labeled with Annexin-V-Fluos and propidium iodide (PI), and the number of apoptotic cells was quantified using dual-laser flow cytometric analysis.
as §1

For `CC1(C)CC(C)(C)c2cc(NC(=S)Nc3ccc([N+](=O)[O-])cc3)ccc2S1` [SHetA2], the “Fold: Retinitis pigmentosa GTPase regulator (RPGR)” value (ovarian cancer cells; Genbank NM_000328.1, Eye Diseases) was 0.47 Fold, the “Fold: UDP-galactose-4-epimerase in epimerase-deficiency galactosemia” value (ovarian cancer cells; Genbank NM_000403, Storage and Metabolism Deficiencies) was 0.66 Fold and the “Fold: Sulfite oxidase (SUOX), nuclear gene encoding mitochondrial protein” value (ovarian cancer cells; Genbank NM_000456.1) was 2.11 Fold. For the same compound, the “Fold: Galactosamine (N-acetyl)-6-sulfate sulfatase in Morquio syndrome, mucopolysaccharidosis type IVA” value (ovarian cancer cells; Genbank NM_000512, Storage and Metabolism Deficiencies) was 0.52 Fold, the “Fold: Regulatory factor X-associated protein (RFXAP)in bare lymphocyte syndrome” value (ovarian cancer cells; Genbank NM_000538.1, Autoimmune Diseases) was 0.41 Fold and the “Fold: Endothelial cell growth factor 1 (platelet-derived)/Thymidine phosphorylase” value (ovarian cancer cells; Genbank NM_001953) was 0.42 Fold. For the same compound, the “Fold: Figroblast growth factor 2 (basic)(FGF2)” value (ovarian cancer cells; Genbank NM_002006.1) was 0.35 Fold, the “Fold: Promyelocytic leukemia (PML)” value (ovarian cancer cells; Genbank NM_002675.1, Cancer) was 2.76 Fold and the “Fold: Transglutaminase 4 (prostate)” value (ovarian cancer cells; Genbank NM_003241, Cancer) was 0.24 Fold. The “Fold: Thrombospondin 4” value (ovarian cancer cells; Genbank NM_003248) was 0.58 Fold, the “Fold: Thromospondin 4 (THBS4)” value (ovarian cancer cells; Genbank NM_03248.1) was 2.58 Fold and the “Fold: Dysferlin, limb girdle muscular dystrophy 2B (autosomal recessive) (DYSF)” value (ovarian cancer cells; Genbank NM_003494.1, Skeletal Diseases) was 2.16 Fold. For the same compound, the “Fold: Peroxisomal biogenesis factor 3 (PEX3)” value (ovarian cancer cells; Genbank NM_003630.1, Autoimmune Diseases) was 0.43 Fold, the “Fold: Fibroblast growth factor 18 (FGF18)” value (ovarian cancer cells; Genbank NM_003862.1) was 2.75 Fold and the “Fold: Dystrophin (muscular dystrophy, Duchenne and Becker types), dystrophin Dp40 isoform (DMD)” value (ovarian cancer cells; Genbank NM_004019.1, Skeletal Diseases) was 2.76 Fold. The “Fold: Vitelliform macular dystrophy (Best disease, bestrophin) (VMD2)” value (ovarian cancer cells; Genbank NM_004183.1, Eye Diseases) was 0.28 Fold, the “Fold: Smcx homolog, X chromosome (mouse) in nonsyndromic X-linked mental retardation” value (ovarian cancer cells; Genbank NM_004187, Neuromuscular Diseases) was 0.61 Fold and the “Fold: Enhancer of zeste (Drosophila) homolog 2 (EZH2) (USP14)” value (ovarian cancer cells; Genbank NM_004456.1, Cancer) was 0.47 Fold. For the same compound, the “Fold: Peroxisomal biogenesis factor 14 (PEX14) in peroxisome biogenesis disorders” value (ovarian cancer cells; Genbank NM_004565.1, Neuromuscular Diseases) was 2.06 Fold, the “Fold: ATP-binding cassette, sub-family D (ALD), member 2 (ABCD2) in X-linked adrenoleukodystrophy” value (ovarian cancer cells; Genbank NM_005164.1, Neuromuscular Diseases) was 2.71 Fold and the “Fold: B-cell CLLlymphoma 3 (BCL3)” value (ovarian cancer cells; Genbank NM_005178.1, Cancer) was 2.05 Fold. The “Fold: Neuroblastoma, suppression of tumorigenicity 1 (NBL1),” value (ovarian cancer cells; Genbank NM_005380.1, Cancer) was 3.07 Fold, the “Fold: ATP-binding cassette, sub-family B (MDRTAP), member 6 (ABCB6), nuclear gene encoding mitochondrial protein” value (ovarian cancer cells; Genbank NM_005689.1) was 0.46 Fold and the “Fold: N-cym protein” value (ovarian cancer cells; Genbank NM_006316, Cancer) was 2.38 Fold. The “Fold: Translocase of inner mitochondrial membrane 44 (yeast) homolog (TIM44)” value (ovarian cancer cells; Genbank NM_006351.1) was 0.50 Fold, the “Fold: Butyrophilin, subfamily 3, member A3 (BTN3A3)” value (ovarian cancer cells; Genbank NM_006994.2, Autoimmune Diseases) was 2.04 Fold and the “Fold: Keratocan (KERA) involved in cornea plana” value (ovarian cancer cells; Genbank NM_007035.2, Eye Diseases) was 0.50 Fold. The “Fold: Disintegrin-like and metalloprotease (reprolysin type) with thrombospondin type 1 motif (ADAMTS5)” value (ovarian cancer cells; Genbank NM_007038.1) was 0.23 Fold, the “Fold: Angiopoietin-like 2 (ANGPTL2)” value (ovarian cancer cells; Genbank NM_012098.1) was 2.16 Fold and the “Fold: Nasopharyngeal carcinoma susceptibility protein (LZ16)” value (ovarian cancer cells; Genbank NM_013275.1, Cancer) was 0.41 Fold. The “Fold: Trichorhinophalangeal syndrome I gene (TRPS1)” value (ovarian cancer cells; Genbank NM_014112.1, Skeletal Diseases) was 0.36 Fold, the “Fold: Rhabdoid tumor deletion region protein 1 (RTDR1)” value (ovarian cancer cells; Genbank NM_014433.1, Cancer) was 2.20 Fold and the “Fold: Amyotrophic lateral sclerosis 2 (juvenile) chromosome region, candidate 3 (ALS2CR3)” value (ovarian cancer cells; Genbank NM_015049.1, Neuromuscular Diseases) was 0.41 Fold. For the same compound, the “Fold: Chromosome 5 open reading frame 4 (C5ORF4), putative tumor suppressor” value (ovarian cancer cells; Genbank NM_016348.1, Cancer) was 2.76 Fold, the “Fold: Niban protein (NIBAN) (Renal carcinogenesis)” value (ovarian cancer cells; Genbank NM_022083.1, Cancer) was 0.21 Fold and the “Fold: RNA binding motif protein 5, putative tumor suppressor (LUCA15)” value (ovarian cancer cells; Genbank U23946.1, Cancer) was 0.43 Fold. The “Fold: A kinase anchor protein S-AKAP84 mRNA, nuclear gene encoding mitochondrial protein” value (ovarian cancer cells; Genbank U34074.1) was 2.14 Fold, the “Fold: Unknown protein mRNA within the p53 intron 1” value (ovarian cancer cells; Genbank U58658.1, Cancer) was 0.45 Fold and the “Angiogenesis of glioma tumors (MRI)” value (C6 glioma) was “inhibited the angiogenesis”. The “Growth of glioma tumors (MRI)” value (C6 glioma) was “inhibited the angiogenesis and growth of the tumors”, the “Induction of apoptosis (TUNEL) in organotypic cultures” value ([1]; 1 μM retinoid in media) was “Apoptosis was induced” and the “Level of apoptosis relative to the other retinoids (TUNEL)” value ([1]; 1 μM retinoid in media) was “highest level of apoptosis”. The “Rank as regulator of growth, differentiation and apoptosis among eleven retinoids” value ([1]; 1 μM, 3, 7 or 14 days) was “most potent regulator of growth, differentiation and apoptosis” and the “Induction of apoptosis (Annexin-V-Fluos)” value [2] was “same concentration range as 4-HPR”.
